Results reported in ChEMBL document CHEMBL3124887, “Synthesis and anti-inflammatory activity of aromatic glucosinolates” (2013).

How the values were obtained:
Format in all cases: functional
THP-1 [1] = experiment: Antiinflammatory activity in human THP1 cells assessed as inhibition of LPS-induced TNF-alpha release measured as TNF-alpha level at 0.1 uM after 4hrs by ELISA relative to control
THP-1 [2] = experiment: Antiinflammatory activity in human THP1 cells assessed as inhibition of LPS-induced TNF-alpha release measured as TNF-alpha level at 0.5 uM after 4hrs by ELISA relative to control
THP-1 [3] = experiment: Antiinflammatory activity in human THP1 cells assessed as inhibition of LPS-induced TNF-alpha release measured as TNF-alpha level at 5 uM after 4hrs by ELISA relative to control
THP-1 [4] = experiment: Antiinflammatory activity in human THP1 cells assessed as inhibition of LPS-induced TNF-alpha release measured as TNF-alpha level at 10 uM after 4hrs by ELISA relative to control
THP-1 [5] = experiment: Antiinflammatory activity in human THP1 cells assessed as inhibition of LPS-induced TNF-alpha release measured as TNF-alpha level at 15 uM after 4hrs by ELISA relative to control
THP-1 [6] = experiment: Antiinflammatory activity in human THP1 cells assessed as inhibition of LPS-induced TNF-alpha release measured as TNF-alpha level at 1 uM after 4hrs by ELISA relative to control

| Structure (SMILES) | Activity (THP-1 [1]) | Activity (THP-1 [2]) | Activity (THP-1 [3]) | Activity (THP-1 [4]) | Activity (THP-1 [5]) | Activity (THP-1 [6]) |
| --- | --- | --- | --- | --- | --- | --- |
| O=S(=O)([O-])O/N=C(\S[C@@H]1O[C@H](CO)[C@@H](O)[C@H](O)[C@H]1O)c1ccccc1.[K+] | 231.15 pg/mL | 194.44 pg/mL | 166.58 pg/mL | 144.15 pg/mL | 103.57 pg/mL |  |
| O=S(=O)([O-])O/N=C(/Cc1ccccc1)S[C@@H]1O[C@H](CO)[C@@H](O)[C@H](O)[C@H]1O.[K+] | 275.48 pg/mL |  |  | 206.65 pg/mL | 201.87 pg/mL | 248.4 pg/mL |
| O=S(=O)([O-])O/N=C(/CCc1ccccc1)S[C@@H]1O[C@H](CO)[C@@H](O)[C@H](O)[C@H]1O.[K+] |  |  | 115.25 pg/mL | 96.86 pg/mL | 74.76 pg/mL | 138.43 pg/mL |
| O=S(=O)([O-])O/N=C(/C=C/c1ccccc1)S[C@@H]1O[C@H](CO)[C@@H](O)[C@H](O)[C@H]1O.[K+] |  |  |  | 122.91 pg/mL | 79.23 pg/mL | 149.06 pg/mL |
| COc1ccc(/C(=N/OS(=O)(=O)[O-])S[C@@H]2O[C@H](CO)[C@@H](O)[C@H](O)[C@H]2O)cc1OC.[K+] |  | 161.76 pg/mL | 128.21 pg/mL | 93.1 pg/mL | 69.2 pg/mL | 144.57 pg/mL |
| O=S(=O)([O-])O/N=C(\S[C@@H]1O[C@H](CO)[C@@H](O)[C@H](O)[C@H]1O)c1cccc(Cl)c1Cl.[K+] |  |  | 162 pg/mL | 157.09 pg/mL | 114.17 pg/mL |  |
| O=S(=O)([O-])O/N=C(\S[C@@H]1O[C@H](CO)[C@@H](O)[C@H](O)[C@H]1O)c1ccc(Br)cc1.[K+] | 165.27 pg/mL |  | 173.17 pg/mL | 122.04 pg/mL | 111.1 pg/mL |  |
| Oc1cc(O)c2c(c1)OC(c1ccc(O)c(O)c1)C(O)C2 (stereo unspecified) [CATECHIN] |  | 303.98 pg/mL | 282.65 pg/mL |  | 255.94 pg/mL |  |
